Here are results for 19 molecules from the NIST ThermoML archive (doi:10.1016/j.jct.2013.01.005).

A short description of the data set: activity coefficient (dimensionless); of the first substance listed, at infinite dilution; xn = mol fraction of the nth substance listed. As to conditions: 101 kPa, Liquid, Chromatography, x1 = 0.

Numbers after ± are expanded uncertainties.

On to `Cc1ccccc1C` [1,2-dimethylbenzene] + CCCCCC[N+]1(C)CCCCC1.O=S(=O)([N-]S(=O)(=O)C(F)(F)F)C(F)(F)F, for which the activity coefficient is, setting by setting: (308.15 K) 1.04 ± 0.07; (318.15 K) 1.08 ± 0.07; (328.15 K) 1.1 ± 0.07; (338.15 K) 1.13 ± 0.07; (348.15 K) 1.16 ± 0.07; (358.15 K) 1.18 ± 0.08.

Consider `Cc1ccccc1C` [1,2-dimethylbenzene] + CCCCC[N+]1(C)CCCCC1.O=S(=O)([N-]S(=O)(=O)C(F)(F)F)C(F)(F)F, for which the activity coefficient (308.15 K) worked out at 1.06 ± 0.07; the activity coefficient (318.15 K) was found to be 1.14 ± 0.07; the activity coefficient (328.15 K) stood at 1.16 ± 0.07; the activity coefficient (338.15 K) was found to be 1.19 ± 0.08; the activity coefficient (348.15 K) was determined as 1.24 ± 0.08; the activity coefficient (358.15 K) came to 1.27 ± 0.08.

Regarding `Cc1cccc(C)c1` [1,3-dimethylbenzene] + CCCCCC[N+]1(C)CCCCC1.O=S(=O)([N-]S(=O)(=O)C(F)(F)F)C(F)(F)F, the activity coefficient stood at 1.14 ± 0.07 (308.15 K); 1.16 ± 0.07 (318.15 K); 1.19 ± 0.08 (328.15 K); 1.23 ± 0.08 (338.15 K); 1.27 ± 0.08 (348.15 K); 1.29 ± 0.08 (358.15 K).

For `Cc1cccc(C)c1` [1,3-dimethylbenzene] + CCCCC[N+]1(C)CCCCC1.O=S(=O)([N-]S(=O)(=O)C(F)(F)F)C(F)(F)F, the activity coefficient runs as follows: (308.15 K) 1.15 ± 0.07; (318.15 K) 1.24 ± 0.08; (328.15 K) 1.28 ± 0.08; (338.15 K) 1.31 ± 0.09; (348.15 K) 1.36 ± 0.09; (358.15 K) 1.39 ± 0.09.

With `Cc1ccc(C)cc1` [1,4-dimethylbenzene] + CCCCCC[N+]1(C)CCCCC1.O=S(=O)([N-]S(=O)(=O)C(F)(F)F)C(F)(F)F, the activity coefficient (308.15 K) was 1.14 ± 0.07; the activity coefficient (318.15 K) worked out at 1.17 ± 0.07; the activity coefficient (328.15 K) was determined as 1.2 ± 0.08; the activity coefficient (338.15 K) was 1.24 ± 0.08; the activity coefficient (348.15 K) came out at 1.28 ± 0.08; the activity coefficient (358.15 K) came to 1.3 ± 0.08.

As to `Cc1ccc(C)cc1` [1,4-dimethylbenzene] + CCCCC[N+]1(C)CCCCC1.O=S(=O)([N-]S(=O)(=O)C(F)(F)F)C(F)(F)F, the activity coefficient is 1.16 ± 0.07 (308.15 K); 1.24 ± 0.08 (318.15 K); 1.28 ± 0.08 (328.15 K); 1.32 ± 0.09 (338.15 K); 1.37 ± 0.09 (348.15 K); 1.4 ± 0.09 (358.15 K).

`C=CCCCCCCCC` [1-decene] + CCCCCC[N+]1(C)CCCCC1.O=S(=O)([N-]S(=O)(=O)C(F)(F)F)C(F)(F)F: the activity coefficient (308.15 K) worked out at 12.3 ± 0.8; the activity coefficient (318.15 K) is 12.1 ± 0.8; the activity coefficient (328.15 K) worked out at 12 ± 0.8; the activity coefficient (338.15 K) was determined as 11.8 ± 0.8; the activity coefficient (348.15 K) is 11.7 ± 0.8; the activity coefficient (358.15 K) amounted to 11.5 ± 0.8.

Take `C=CCCCCCCCC` [1-decene] + CCCCC[N+]1(C)CCCCC1.O=S(=O)([N-]S(=O)(=O)C(F)(F)F)C(F)(F)F: the activity coefficient runs as follows: (308.15 K) 17.1 ± 1.2; (318.15 K) 16.5 ± 1.1; (328.15 K) 15.9 ± 1.1; (338.15 K) 15.5 ± 1.1; (348.15 K) 15.3 ± 1; (358.15 K) 14.6 ± 1.

For the molecule `C=CCCCCC` [1-heptene] + CCCCCC[N+]1(C)CCCCC1.O=S(=O)([N-]S(=O)(=O)C(F)(F)F)C(F)(F)F, the activity coefficient is 5.89 ± 0.4 (308.15 K); 5.81 ± 0.4 (318.15 K); 5.69 ± 0.39 (328.15 K); 5.59 ± 0.38 (338.15 K); 5.45 ± 0.37 (348.15 K); 5.35 ± 0.36 (358.15 K).

Take `C=CCCCCC` [1-heptene] + CCCCC[N+]1(C)CCCCC1.O=S(=O)([N-]S(=O)(=O)C(F)(F)F)C(F)(F)F: the activity coefficient runs as follows: (308.15 K) 7.42 ± 0.51; (318.15 K) 7.12 ± 0.49; (328.15 K) 6.88 ± 0.47; (338.15 K) 6.67 ± 0.45; (348.15 K) 6.48 ± 0.44; (358.15 K) 6.31 ± 0.43.

For `C#CCCCCC` [1-heptyne] + CCCCCC[N+]1(C)CCCCC1.O=S(=O)([N-]S(=O)(=O)C(F)(F)F)C(F)(F)F, the activity coefficient was 2.39 ± 0.16 (308.15 K); 2.43 ± 0.17 (318.15 K); 2.46 ± 0.17 (328.15 K); 2.49 ± 0.17 (338.15 K); 2.52 ± 0.17 (348.15 K); 2.55 ± 0.17 (358.15 K).

Regarding `C#CCCCCC` [1-heptyne] + CCCCC[N+]1(C)CCCCC1.O=S(=O)([N-]S(=O)(=O)C(F)(F)F)C(F)(F)F, the activity coefficient (308.15 K) came out at 2.78 ± 0.19; the activity coefficient (318.15 K) worked out at 2.81 ± 0.19; the activity coefficient (328.15 K) was determined as 2.84 ± 0.19; the activity coefficient (338.15 K) stood at 2.87 ± 0.2; the activity coefficient (348.15 K) was 2.91 ± 0.2; the activity coefficient (358.15 K) was 2.94 ± 0.2.

`C#CCCCC` [1-hexyne] + CCCCCC[N+]1(C)CCCCC1.O=S(=O)([N-]S(=O)(=O)C(F)(F)F)C(F)(F)F: the activity coefficient (308.15 K) is 1.85 ± 0.12; the activity coefficient (318.15 K) came to 1.88 ± 0.13; the activity coefficient (328.15 K) was found to be 1.92 ± 0.13; the activity coefficient (338.15 K) came out at 1.93 ± 0.13; the activity coefficient (348.15 K) came to 1.96 ± 0.13; the activity coefficient (358.15 K) is 1.98 ± 0.13.

For the molecule `C#CCCCC` [1-hexyne] + CCCCC[N+]1(C)CCCCC1.O=S(=O)([N-]S(=O)(=O)C(F)(F)F)C(F)(F)F, the activity coefficient is 2.09 ± 0.14 (308.15 K); 2.12 ± 0.14 (318.15 K); 2.14 ± 0.15 (328.15 K); 2.18 ± 0.15 (338.15 K); 2.22 ± 0.15 (348.15 K); 2.25 ± 0.15 (358.15 K).

Consider `C#CCCCCCC` [1-octyne] + CCCCCC[N+]1(C)CCCCC1.O=S(=O)([N-]S(=O)(=O)C(F)(F)F)C(F)(F)F, for which the activity coefficient is, setting by setting: (308.15 K) 3.1 ± 0.21; (318.15 K) 3.14 ± 0.21; (328.15 K) 3.19 ± 0.22; (338.15 K) 3.21 ± 0.22; (348.15 K) 3.24 ± 0.22; (358.15 K) 3.26 ± 0.22.

For the molecule `C#CCCCCCC` [1-octyne] + CCCCC[N+]1(C)CCCCC1.O=S(=O)([N-]S(=O)(=O)C(F)(F)F)C(F)(F)F, the activity coefficient by setting is: (308.15 K) 3.71 ± 0.25; (318.15 K) 3.74 ± 0.25; (328.15 K) 3.76 ± 0.26; (338.15 K) 3.79 ± 0.26; (348.15 K) 3.81 ± 0.26; (358.15 K) 3.84 ± 0.26.

In the case of `C#CCCC` [1-pentyne] + CCCCCC[N+]1(C)CCCCC1.O=S(=O)([N-]S(=O)(=O)C(F)(F)F)C(F)(F)F, the activity coefficient runs as follows: (308.15 K) 1.42 ± 0.09; (318.15 K) 1.45 ± 0.1; (328.15 K) 1.48 ± 0.1; (338.15 K) 1.5 ± 0.1; (348.15 K) 1.53 ± 0.1; (358.15 K) 1.54 ± 0.1.

As to `C#CCCC` [1-pentyne] + CCCCC[N+]1(C)CCCCC1.O=S(=O)([N-]S(=O)(=O)C(F)(F)F)C(F)(F)F, the activity coefficient is, setting by setting: (308.15 K) 1.54 ± 0.1; (318.15 K) 1.59 ± 0.11; (328.15 K) 1.62 ± 0.11; (338.15 K) 1.64 ± 0.11; (348.15 K) 1.69 ± 0.11; (358.15 K) 1.73 ± 0.12.

Take `CC(C)CC(C)(C)C` [2,2,4-trimethylpentane] + CCCCCC[N+]1(C)CCCCC1.O=S(=O)([N-]S(=O)(=O)C(F)(F)F)C(F)(F)F: the activity coefficient by setting is: (308.15 K) 9.75 ± 0.67; (318.15 K) 9.59 ± 0.65; (328.15 K) 9.2 ± 0.63; (338.15 K) 8.95 ± 0.61; (348.15 K) 8.59 ± 0.59; (358.15 K) 8.43 ± 0.58.
